In US20250066388A1, “1,3,4,7-TETRAHYDRO-2H-PYRROLO[3',2':5,6]PYRIDO[2,3-B][1,4]OXAZEPINE BCL-2 INHIBITORS” (AbbVie Inc., priority 2022, published 2025):

Tests used:
Molt-4 cells = assay: Cell viability counter screen (CellTiter-Glo) in Molt-4 cells; format: cell-based; details: 24 hours, 10% Human Serum
Description: The acute lymphoblastic leukemia (ALL) human cell line RS4;11 (ATCC, Manassas VA) was used as the primary human cell line to assess the cellular activity of compound of the present Examples in vitro and their efficacy in vivo. […] The acute lymphoblastic leukemia cell line Molt-4, which is derived from immature T-lymphoid cells (T-ALL), was used as a counter screen assay.
3000 Cells (0.1×10^6/mL) were seeded in each well of 384-well plate and were treated for 24 hours in a humidified chamber with 5% CO2. Cell viability was determined by CellTiter-Glo as described by the manufacturer's instructions (Promega Corporation, Madison, WI, USA).

Bcl-2 protein = Bcl-2 protein (Homo sapiens (Human), UniProt P10415); assay: TR-FRET binding assay, Bcl-2; details: F-Bak peptide probe, GST-Bcl-2
Bcl-2 protein, sequence (P10415 other isoform, or with tags, fused parts or gaps): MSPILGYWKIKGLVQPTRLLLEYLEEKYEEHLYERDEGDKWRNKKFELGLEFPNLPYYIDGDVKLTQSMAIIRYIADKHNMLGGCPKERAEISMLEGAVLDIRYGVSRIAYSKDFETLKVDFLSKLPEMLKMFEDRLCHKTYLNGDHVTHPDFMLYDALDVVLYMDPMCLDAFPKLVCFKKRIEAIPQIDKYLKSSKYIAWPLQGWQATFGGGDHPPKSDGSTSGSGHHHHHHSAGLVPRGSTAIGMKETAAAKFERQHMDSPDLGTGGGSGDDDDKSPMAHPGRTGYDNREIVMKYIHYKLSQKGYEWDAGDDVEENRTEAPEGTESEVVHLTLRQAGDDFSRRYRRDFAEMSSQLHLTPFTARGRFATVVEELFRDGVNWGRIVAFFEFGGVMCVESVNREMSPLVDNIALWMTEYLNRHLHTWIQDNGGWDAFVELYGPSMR
Description: (§1) Determination of the utility of compounds having Formula (I) or Formula (II) as binders to and inhibitors of anti-apoptotic Bcl-2 proteins was performed using the Time Resolved-Fluorescence Resonance Energy Transfer (TR-FRET) Assay. Tb-anti-GST antibody was purchased from Invitrogen (Catalog No. PV4216).
A Bcl-2 human encoding sequence was cloned into a pET41A vector (Novagen). The protein was expressed with E. coli. BL21(DE3)-T1R strain in OETB autoinduction medium at 30° C. for 25 hours. The cell pellets were resuspended in lysis buffer (50 mM Tris, 140 mM NaCl, 1 mM DTT, 10% Glycerol, 2 mM MgCl2, pH 7.3) and lysed with Microfluidizer. The Bcl-2 protein in clarified cell-lysate was purified with affinity chromatography (GST and Ni-NTA). The eluate was loaded onto a Superdex 75 column and further purified with a Q Sepharose column. The protein was purified on a phenyl hydrophobic interaction column and dialyzed in the storage buffer (50 mM Tris, 50 mM NaCl, 2 mM DTT, pH 7.5) and stored at −80° C.
(§2) […] of a protein (Bcl-2 or Bcl-xL)/probe/antibody mixture pre-equilibrated for one hour in assay buffer was added to each well at final concentrations listed in Table 6 below.
(§3) The samples were then mixed on a shaker for 1 minute and equilibrated for an additional 3 hours at room temperature. For each assay plate, a probe/antibody and protein/antibody/probe mixture were included as a negative and a positive control, respectively. Fluorescence was measured on the Envision (Perkin Elmer) using a 340/35 nm excitation filter and 520/525 (F-Bak) and 495/510 nm (Tb-labeled anti-GST antibody) emission filters. Inhibition constants (Ki) were determined using Wang's equation (Wang FEBS Lett. 1995, 360, 111-114). The TR-FRET assay can be performed in the presence of varying concentrations of human serum (HS) to determine apparent half maximal inhibitory concentration (IC50) after HS protein binding.
(§4) Inhibition constants were determined using Wang's equation (Wang FEBS Lett. 1995, 360:111-4).

Bcl-xL protein = Bcl-xL protein (Homo sapiens (Human), UniProt Q07817); assay: TR-FRET binding assay, Bcl-xL; details: F-Bak peptide probe
Bcl-xL protein, sequence (Q07817 other isoform, or with tags, fused parts or gaps): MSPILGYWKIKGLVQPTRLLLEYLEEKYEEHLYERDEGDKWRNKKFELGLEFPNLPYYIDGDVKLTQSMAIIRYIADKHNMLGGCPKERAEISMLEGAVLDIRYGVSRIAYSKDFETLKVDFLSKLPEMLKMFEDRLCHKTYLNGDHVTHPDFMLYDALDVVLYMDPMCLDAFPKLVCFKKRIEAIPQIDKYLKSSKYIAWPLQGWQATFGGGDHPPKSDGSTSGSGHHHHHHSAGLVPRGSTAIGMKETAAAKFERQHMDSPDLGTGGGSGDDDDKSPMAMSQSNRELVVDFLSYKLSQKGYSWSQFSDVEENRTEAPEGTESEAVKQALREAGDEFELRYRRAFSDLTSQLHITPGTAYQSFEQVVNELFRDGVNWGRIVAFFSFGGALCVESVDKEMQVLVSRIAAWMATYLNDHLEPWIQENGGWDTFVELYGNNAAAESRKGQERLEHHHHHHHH
Description: as §1
A human Bcl-xL encoding sequence was cloned into a pET41A vector. The protein was expressed with E. coli. BL21(DE3)-T1R strain in OETB autoinduction medium at 30° C. for 25 hours. The cell pellets were resuspended in lysis buffer (50 mM Tris, 140 mM NaCl, 1 mM DTT, 10% Glycerol, 0.1% Triton X-100, pH 7.5) and lysed with Microfluidizer. The Bcl-xL protein in clarified cell-lysate was purified with GST affinity chromatography. The eluate was dialyzed in the storage buffer (1×PBS, 10% Glycerol, 2 mM DTT, 1 mM Sodium Azide, pH 7.4) and stored at −80° C.
as §2, §3, §4

Row | SMILES | EC50 (Molt-4 cells) [nM] | Ki (Bcl-2 protein) [nM] | Ki (Bcl-xL protein) [nM]
1 | CC1(C)CC(c2ccc(Cl)cc2)=C2CN3CCN(c4ccc(C(=O)NS(=O)(=O)c5cnc(OC[C@H]6CC[C@](C)(O)CC6)c(Cl)c5)c(N5CCCOc6nc7[nH]ccc7cc65)c4)C[C@H]3COCCCO[C@@H]2C1 [Example 42, N-((5-chloro-6-(((1r,4r)-4-hydroxy-4-methylcyclohexyl)methoxy)pyridin-3-yl)sulfonyl)-4-((4aS,10aR)-14-(4-chlorophenyl)-12,12-dimethyl-1,2,4a,5,8,9,10a,11,13,15-decahydro-7H,12H-benzo[f]pyrazino[2,1-c][1,8]dioxa[4]azacycloundecin-3(4H)-yl)-2-(3,4-dihydro-2H-pyrrolo[3′,2′:5,6]pyrido[2,3-b][1,4]oxazepin-1(7H)-yl)benzamide] | > 10000 |  | 
2 | CC1(C)CC(c2ccc(Cl)cc2)=C2CN3CCN(c4ccc(C(=O)NS(=O)(=O)c5ccc(NC[C@@H]6CC[C@@H](O)CO6)c([N+](=O)[O-])c5)c(N5CCCOc6nc7[nH]ccc7cc65)c4)C[C@H]3COCCCO[C@@H]2C1 [Example 27, 4-((4aS,10aR)-14-(4-chlorophenyl)-12,12-dimethyl-1,2,4a,5,8,9,10a,11,13,15-decahydro-7H,12H-benzo[f]pyrazino[2,1-c][1,8]dioxa[4]azacycloundecin-3(4H)-yl)-2-(3,4-dihydro-2H-pyrrolo[3′,2′:5,6]pyrido[2,3-b][1,4]oxazepin-1(7H)-yl)-N-((4-((((2S,5R)-5-hydroxytetrahydro-2H-pyran-2-yl)methyl)amino)-3-nitrophenyl)sulfonyl)benzamide] |  | 1.72 | 7.41
3 | CO[C@H]1CC[C@H](CNc2ccc(S(=O)(=O)NC(=O)c3ccc(N4CCN5CC6=C(c7ccc(Cl)cc7)CC(C)(C)C[C@H]6OCCCOC[C@@H]5C4)cc3N3CCCOc4nc5[nH]ccc5cc43)cc2[N+](=O)[O-])OC1 [Example 13, 4-((4aS,10aR)-14-(4-chlorophenyl)-12,12-dimethyl-1,2,4a,5,8,9,10a,11,13,15-decahydro-7H,12H-benzo[f]pyrazino[2,1-c][1,8]dioxa[4]azacycloundecin-3(4H)-yl)-2-(3,4-dihydro-2H-pyrrolo[3′,2′:5,6]pyrido[2,3-b][1,4]oxazepin-1(7H)-yl)-N-((4-((((2R,5S)-5-methoxytetrahydro-2H-pyran-2-yl)methyl)amino)-3-nitrophenyl)sulfonyl)benzamide] |  | 0.35 | 6.8
4 | CC1(C)CC(c2ccc(Cl)cc2)=C2CN3CCN(c4ccc(C(=O)NS(=O)(=O)c5ccc(NC[C@H]6C[C@@](O)(CF)C6)c([N+](=O)[O-])c5)c(N5CCCOc6nc7[nH]ccc7cc65)c4)C[C@H]3COCCCO[C@@H]2C1 [Example 8, 4-((4aS,10aR)-14-(4-chlorophenyl)-12,12-dimethyl-1,2,4a,5,8,9,10a,11,13,15-decahydro-7H,12H-benzo[f]pyrazino[2,1-c][1,8]dioxa[4]azacycloundecin-3(4H)-yl)-2-(3,4-dihydro-2H-pyrrolo[3′,2′:5,6]pyrido[2,3-b][1,4]oxazepin-1(7H)-yl)-N-((4-((((1r,3r)-3-(fluoromethyl)-3-hydroxycyclobutyl)methyl)amino)-3-nitrophenyl)sulfonyl)benzamide] |  | 0.448 | 0.125
5 | COCCO[C@H]1CC[C@H](CNc2ccc(S(=O)(=O)NC(=O)c3ccc(N4CCN5CC6=C(c7ccc(Cl)cc7)CC(C)(C)C[C@H]6OCCCOC[C@@H]5C4)cc3N3CCCOc4nc5[nH]ccc5cc43)cc2[N+](=O)[O-])OC1 [Example 35, 4-((4aS,10aR)-14-(4-chlorophenyl)-12,12-dimethyl-1,2,4a,5,8,9,10a,11,13,15-decahydro-7H,12H-benzo[f]pyrazino[2,1-c][1,8]dioxa[4]azacycloundecin-3(4H)-yl)-2-(3,4-dihydro-2H-pyrrolo[3′,2′:5,6]pyrido[2,3-b][1,4]oxazepin-1(7H)-yl)-N-((4-((((2R,5S)-5-(2-methoxyethoxy)tetrahydro-2H-pyran-2-yl)methyl)amino)-3-nitrophenyl)sulfonyl)benzamide] |  | 0.0891 | 23.1
6 | CC1(C)CC(c2ccc(Cl)cc2)=C2CN3CCN(c4ccc(C(=O)NS(=O)(=O)c5ccc(NC[C@H]6C[C@](O)(CF)C6)c([N+](=O)[O-])c5)c(N5CCCOc6nc7[nH]ccc7cc65)c4)C[C@H]3COCCCO[C@@H]2C1 [Example 16, 4-((4aS,10aR)-14-(4-chlorophenyl)-12,12-dimethyl-1,2,4a,5,8,9,10a,11,13,15-decahydro-7H,12H-benzo[f]pyrazino[2,1-c][1,8]dioxa[4]azacycloundecin-3(4H)-yl)-2-(3,4-dihydro-2H-pyrrolo[3′,2′:5,6]pyrido[2,3-b][1,4]oxazepin-1(7H)-yl)-N-((4-((((1s,3s)-3-(fluoromethyl)-3-hydroxycyclobutyl)methyl)amino)-3-nitrophenyl)sulfonyl)benzamide] |  | 0.297 | 15
7 | CC1(C)CC(c2ccc(Cl)cc2)=C2CN3CCN(c4ccc(C(=O)NS(=O)(=O)c5cnc(OC[C@]6(F)CC[C@H](N7CCOCC7)CC6)c(Cl)c5)c(N5CCCOc6nc7[nH]ccc7cc65)c4)C[C@H]3COCCCO[C@@H]2C1 [Example 11, N-((5-chloro-6-(((1r,4r)-1-fluoro-4-morpholinocyclohexyl)methoxy)pyridin-3-yl)sulfonyl)-4-((4aS,10aR)-14-(4-chlorophenyl)-12,12-dimethyl-1,2,4a,5,8,9,10a,11,13,15-decahydro-7H,12H-benzo[f]pyrazino[2,1-c][1,8]dioxa[4]azacycloundecin-3(4H)-yl)-2-(3,4-dihydro-2H-pyrrolo[3′,2′:5,6]pyrido[2,3-b][1,4]oxazepin-1(7H)-yl)benzamide] |  | 0.936 | 17.3
8 | COCCN1CCC(F)(COc2ncc(S(=O)(=O)NC(=O)c3ccc(N4CCN5CC6=C(c7ccc(Cl)cc7)CC(C)(C)C[C@H]6OCCCOC[C@@H]5C4)cc3N3CCCOc4nc5[nH]ccc5cc43)cc2Cl)CC1 [Example 22, N-((5-chloro-6-((4-fluoro-1-(2-methoxyethyl)piperidin-4-yl)methoxy)pyridin-3-yl)sulfonyl)-4-((4aS,10aR)-14-(4-chlorophenyl)-12,12-dimethyl-1,2,4a,5,8,9,10a,11,13,15-decahydro-7H,12H-benzo[f]pyrazino[2,1-c][1,8]dioxa[4]azacycloundecin-3(4H)-yl)-2-(3,4-dihydro-2H-pyrrolo[3′,2′:5,6]pyrido[2,3-b][1,4]oxazepin-1(7H)-yl)benzamide] |  | 0.339 | 14.7
9 | COC1CO[C@H](CNc2ccc(S(=O)(=O)NC(=O)c3ccc(N4CCN5CC6=C(c7ccc(Cl)cc7)CC(C)(C)C[C@H]6OCCCOC[C@@H]5C4)cc3N3CCCOc4nc5[nH]ccc5cc43)cc2[N+](=O)[O-])C1 (stereo partly drawn) [Example 29, 4-((4aS,10aR)-14-(4-chlorophenyl)-12,12-dimethyl-1,2,4a,5,8,9,10a,11,13,15-decahydro-7H,12H-benzo[f]pyrazino[2,1-c][1,8]dioxa[4]azacycloundecin-3(4H)-yl)-2-(3,4-dihydro-2H-pyrrolo[3′,2′:5,6]pyrido[2,3-b][1,4]oxazepin-1(7H)-yl)-N-((4-((((2S)-4-methoxytetrahydrofuran-2-yl)methyl)amino)-3-nitrophenyl)sulfonyl)benzamide] |  | 2.59 | 22.5
10 | CC1(C)CC(c2ccc(Cl)cc2)=C2CN3CCN(c4ccc(C(=O)NS(=O)(=O)c5cnc(OCC6(F)CCN(C7COC7)CC6)c(Cl)c5)c(N5CCCOc6nc7[nH]ccc7cc65)c4)C[C@H]3COCCCO[C@@H]2C1 [Example 4, N-((5-chloro-6-((4-fluoro-1-(oxetan-3-yl)piperidin-4-yl)methoxy)pyridin-3-yl)sulfonyl)-4-((4aS,10aR)-14-(4-chlorophenyl)-12,12-dimethyl-1,2,4a,5,8,9,10a,11,13,15-decahydro-7H,12H-benzo[f]pyrazino[2,1-c][1,8]dioxa[4]azacycloundecin-3(4H)-yl)-2-(3,4-dihydro-2H-pyrrolo[3′,2′:5,6]pyrido[2,3-b][1,4]oxazepin-1(7H)-yl)benzamide] |  | 0.28 | 18.8
